Reference: US4424342A, “Anthracycline antibiotic compounds” (priority 1981, dated 1984)
≈ marks a conversion by molar mass, not a printed value. Entries after “also recorded” stand apart in the source; their conditions may differ. Like-named read-outs stand apart in the source and are kept apart here.

Tests used:
[1] = Acute toxicity; type: in vivo
[2] = tested on: L1210 mouse leukemia; assay: In vivo activity on L1210 mouse leukemia, prolongation of survival time; design: species or system mouse (CDF1 mice); conditions: for prolongation of survival time (T/C): i.p. every day for 10 days, CDF1 mice
Description: The therapeutic effect of trisarubicinol was examined by calculating the prolongation of the survival time of treated animals relative to untreated ones (receiving physiological saline). In practice, 1×10^5 mouse leukemia cells each were intraperitoneally transplanted into CDF1 mice and varied doses of trisarubicinol were intraperitoneally injected every day for 10 days from 24 hours after cell transplantation.

[3] = tested on: L1210 leukemia cells, DNA synthesis; assay: DNA synthesis inhibition in L1210 leukemia culture cells (14C-thymidine incorporation); type: cell-based; conditions: Mus musculus
Description: (§1) The 50% inhibitory concentration of trisarubicinol on L1210 leukemia cells was calculated by culturing 5×10^4 cells/ml at 37° C. in 5% CO2 -air in 20% calf serum-supplemented RPMI 1640 medium (Roswell Park Memorial Institute 1640 medium) containing none (control), 0.01 and 0.05 μg/ml of trisarubicinol. In addition. the inhibitory effect of the new anthracycline compound on nucleic acid synthesis was examined as follows: after 5×10^5 cells/ml of L1210 leukemia cells were preincubated in 5% CO2 -air at 37° C. for 1-2 hours in RPMI medium containing 10% calf serum, varied concentrations of trisarubicinol were added and incubated for 15 minutes under the same conditions. Then 0.05 μCi/ml each of ^14 C-uridine or ^14 C-thymidine was added to the cell suspensions and the mixtures were incubated at 37° C. for a further 60 minutes. At the end of incubation, cold 10% trichloroacetic acid was added to stop the incorporation of the radio-labelled compound. The acid-insoluble fractions were collected by centrifugation; rinsed three times with 5% trichloroacetic acid; and dissolved in formic acid for radiometry. The 50% inhibitory concentration of the new anthracycline compound was calculated from the radiometric data of the acid-insoluble fractions of the control and test reaction mixtures.

[4] = tested on: various experimental tumors in animals; assay: Antitumor activity on various experimental tumors in animals; conditions: in vivo
[5] = tested on: L1210 leukemia cells, RNA synthesis; assay: RNA synthesis inhibition in L1210 leukemia culture cells (14C-uridine incorporation); type: cell-based, mouse; conditions: for IC50: Mus musculus
Description: as §1

[6] = tested on: L1210 leukemia cells; assay: Growth inhibition of L1210 leukemia culture cells in vitro; type: cell-based, mouse; conditions: for IC50: Mus musculus
Description: as §1

| SMILES | LD50 ([1]; in vivo, ip) [mg/kg] | toxicity (in words) ([1]; relative to carminomycin I, general statement) | effect on survival time of leukemia cells-holding mice / therapeutic effect (in words) ([2]; L1210 mouse leukemia) | prolongation of survival time (T/C) ([2]; dose 0.63 (head prints "%")) [%] | prolongation of survival time (T/C) ([2]; dose 1.25 (head prints "%")) [%] | prolongation of survival time (T/C) ([2]; dose 2.5 (head prints "%")) [%] | prolongation of survival time (T/C) ([2]; dose 5.0 (head prints "%")) [%] | prolongation of survival time (T/C) ([2]; dose 7.5 (head prints "%")) [%] | prolongation of survival time (T/C) ([2]; dose 10 (head prints "%")) [%] | IC50 ([3]; L1210, read-out: 50% inhibitory concentration (IC50), DNA synthesis inhibition) [µg/mL] | antitumor activity on various experimental tumors in animals (in words) [4] | IC50 ([5]; L1210, read-out: 50% inhibitory concentration (IC50), RNA synthesis inhibition) [µg/mL] | RNA synthesis inhibition compared with carminomycin I (in words) ([5]; at very low concentrations, versus carminomycin I) | growth inhibition of L1210 cells (in words) ([6]; L1210 cultured cells / at low doses) | IC50 ([6]; L1210, read-out: 50% inhibitory concentration (IC50), cell growth inhibition) [µg/mL] | antitumor activity compared with carminomycin I (in words) ([6]; versus carminomycin I, L1210) | IC50 ([3]; L1210 culture cells, 15 min with compound, then 60 min with 14C-thymidine, read-out: 50% inhibitory concentration (IC50), DNA synthesis inhibition) [µg/mL] | IC50 ([5]; L1210 culture cells, 15 min with compound, then 60 min with 14C-uridine, read-out: 50% inhibitory concentration (IC50), RNA synthesis inhibition) [µg/mL] | IC50 ([6]; L1210 culture cells, 5×10^4 cells/ml, 37° C., 20% calf serum-supplemented RPMI 1640, read-out: 50% inhibitory concentration (IC50), cell growth inhibition) [µg/mL] |
| --- | --- | --- | --- | --- | --- | --- | --- | --- | --- | --- | --- | --- | --- | --- | --- | --- | --- | --- | --- |
| CC(O)C1(O)Cc2c(O)c3c(c(O)c2C(O[C@H]2C[C@H](N(C)C)[C@H](O[C@H]4C[C@H](O)[C@H](O[C@H]5CCC(=O)[C@H](C)O5)[C@H](C)O4)[C@H](C)O2)C1)C(=O)c1c(O)cccc1C3=O (stereo partly shown) [trisarubicinol] | 40 to 50 | less toxic than carminomycin I; also recorded: unique low toxicity | marked prolonging effect on the survival time of leukemia cells-holding mice; also recorded: strong therapeutic effect on mouse leukemia (L1210) | 122 | 124 | 159 | 216 | 243 | 131 | 0.38 (≈ 0.484 µM) | excellent antitumor activity on various experimental tumors in animals | 0.06 (≈ 0.0764 µM) | better inhibition of RNA synthesis at very low concentrations | markedly inhibits the growth and nucleic acid synthesis in cultured cells of mouse leukemia (L1210); also recorded: significantly inhibits the growth of L1210 mouse leukemia cells at low doses | 0.01 (≈ 0.0127 µM) | same or better antitumor activity |  |  |  |
| CC(=O)[C@]1(O)Cc2c(O)c3c(c(O)c2[C@@H](O[C@H]2C[C@H](N)[C@H](O)[C@H](C)O2)C1)C(=O)c1c(O)cccc1C3=O [carminomycin I, reference compound] |  |  |  |  |  |  |  |  |  |  |  |  |  |  |  |  | 0.2 (≈ 0.389 µM) | 0.29 (≈ 0.565 µM) | 0.01 (≈ 0.0195 µM) |
